Assays:
Format in all cases: in vivo, human
[1] = tested on: patients with infantile spasms (IS); assay: EEG pattern (hypsarrhythmia) at follow-up assessment after ACTH treatment
Excerpt: The presence of hypsarrhythmia is often used as a diagnostic criteria for IS, and is characterized by an abnormal interictal pattern consisting of high amplitude and irregular waves and spikes in a background of chaotic and disorganized activity within the EEG signals.
At baseline, 54 (36%) had hypsarrhythmia pattern, 75 (50%) had modified hypsarrhythmia pattern, and 21 (14%) had other abnormalities (without hypsarrhythmia) (Table 1). At the follow-up assessment, 58 patients with good response had abnormal EEG findings (abnormalities other than hypsarrhythmia, such as multifocal spikes or sharp waves, abnormal slow wave and fast activity). In terms of the EEG pattern, there was no difference between poor- and good responders, and between the patients who relapsed and the sustained responders (Tables 2-3).
(§1) Different criteria have been utilized to determine response to treatment in previous studies. Our EEG responder criteria are consistent with the criteria used in several previous studies, comprising IS freedom for at least seven consecutive days during treatment, and disappearance of hypsarrhythmia on follow-up EEG assessment. Although the presence of hypsarrhythmia has been considered crucial for the diagnosis and evaluating treatment response in IS, hypsarrhythmia may not be present at diagnosis in 25% of cases. Lack of hypsarrhythmia may be seen in patients with prior AED treatment, the early phase of IS, and late onset of spasms. […] Our findings highlight the importance of new quantitive biomarkers for evaluating EEGs in IS.

[2] = tested on: patients with infantile spasms (IS); assay: Clinical outcome assessment of ACTH treatment (spasms frequency, response, relapse); design: Sf diff (spasms frequency, baseline minus follow-up) / Seizure frequency, Follow-up / Spasms frequency Follow-up / Spasms frequency Change: unit not given here; settings: for Spasms frequency Change / Spasms frequency Follow-up: median
Excerpt: One-hundred-fifty (83 males; 55%) out of 170 patients were included for the clinical outcome assessment study. Mean age of spasms onset was 6.6 (±3.4) months. The mean time to treatment and follow-up duration were 39 (±50) and 38 (±49) days, respectively. Fifty-one out of 150 (34%) of patients had abnormal MRI findings.
The etiology of IS was: genetic/inborn metabolic in 28 (19%), unknown in 71 (47%), and structural brain abnormality (acquired and congenital) in 51 (34%). […] During the ACTH treatment, 86 (57%) patients were receiving concomitant ASMs (Table 1).
One hundred-one of 150 patients (67%) were deemed responders to the ACTH treatment at follow-up assessment, with IS cessation and resolution of hypsarrhythmia (Table 2). Thirty out of 101 initial responders (30%) experienced a relapse. Clinical parameters such as age of onset, sex, MRI finding, previous seizure history, previous and concomitant AED treatment, etiology, and baseline EEG were not prognostic factors for response and relapse (Tables 2-3).
as §1

[3] = tested on: patients with infantile spasms (IS); assay: Quantitative EEG analysis (manual/automatic spike count, delta power) before and after ACTH treatment; settings: for Delta Power Change / Spike Count (Automatic) Change / Spike Count (Manual) Change / Delta Power Follow-up / Spike Count (Manual) Follow-up / Spike Count (Automatic) Follow-up: median
Method: In act 602, EEG data of a subject is obtained in any manner described above in relation to act 102 of FIG. 1. In act 604, a power spectral density (PSD) of at least part of the EEG data is calculated. The PSD, as discussed above, provides information on the amount of power present in various frequency components of the EEG signal(s). As one non-limiting example, a Fast Fourier Transform (FFT) of one or more EEG signals may be performed to determine the PSD of the EEG signals. Suitable parameters of the FFT operation may include a time constant of 0.16 seconds, a sampling rate of 64 Hz, and/or an FFT window duration of 2 seconds. In some embodiments, a high-pass, low-pass and/or band-pass filter may be applied to EEG signals prior to generation of a PSD. For instance, frequencies above 35 Hz may be filtered from the EEG signals and a PSD generated based on the resulting filtered EEG signals. It will be appreciated that, because an FFT operates on a window of time of the EEG signal(s), a number of PSDs may be calculated for a number of (overlapping or non-overlapping) windows of time of the EEG signal(s). As a result, act 604 may be performed numerous times.
In act 606, a delta power is calculated based on a PSD calculated in act 604. In cases where a number of PSDs are calculated in act 604, a number of delta powers may be calculated in act 606 by calculating a delta power for each PSD. In some cases, the delta power may vary over time within the EEG signals obtained from a subject in a single session. In these cases, it may be preferable to obtain a single average value of the delta power from the EEG signals by, for instance, calculating the mean of the calculated delta power. Delta power may be calculated by determining the total spectral power present within the calculated PSD data between the frequency bounds of the delta band (e.g., 0.5 Hz to 4 Hz). In some cases, the delta power may be calculated by determining a total area under the PSD curve within the delta band's frequency range.
In act 702, EEG data of a subject is obtained in any manner described above in relation to act 102 of FIG. 1. In act 704, a plurality of wavelet coefficients may be calculated based on the EEG data obtained in act 702. As discussed above, wavelet analysis may represent a particularly desirable approach to identifying spikes due to the natural ability of wavelets to identify rapid changes in a signal's amplitude. Act 704 may comprise any suitable approach to determining wavelet coefficients, including a continuous wavelet transform (CWT), a discrete wavelet transform (DWT) and/or a stationary wavelet transform (SWT). In some embodiments, an SWT analysis may be preferable because the results are invariant with respect to time shifts, although a greater redundancy in data may be produced compared with a DWT analysis, for example. Any suitable wavelet family may be utilized during act 704, including haar, daubechies, biorthogonal, coiflets and/or symlets (e.g., symlet4).
In act 706, spikes are identified from the wavelet coefficients determined in act 704. Act 706 may comprise identifying a number of instances in which the wavelet coefficients have values above or below a suitable threshold that represents an incidence of a spike, to produce a spike count. A spike frequency may be determined by dividing the spike count by the total amount of time represented by the EEG data.
Fifty out of these 150 patients had original EEG data available for analysis met criteria for the comparison of baseline and follow-up electrophysiological evaluation.
The magnitude of changes in the EEG parameters (spike quantification and slow wave activity) were more prominent in patients responders as compared to non-responders (MSC diff: 169 vs.44 spikes; p<0.001, ASCA diff: 157 vs.55 spikes; p<0.001, DP diff: 11.3 vs.2.3, Sf diff: 158 vs. 60; p<0.05 respectively in responders vs. non-responders, Table 5).

[4] = Patients without Relapse (n: 20)
[5] = percentage of 101 initial responders
[6] = patients with sustained response

Substance: Adrenocorticotropic hormone (SYSMEHFRWGKPVGKKRRPVKVYPNGAEDESAEAFPLEF; Corticotropin; UniProt P01189 138-176, looked up) [ACTH, polypeptide tropic hormone produced by and secreted by the anterior pituitary gland; used to treat infantile spasms]
- Follow-up EEG features: Normal EEG, number of patients ([1]; n: 150): 44
- Follow-up EEG features: Without Hypsarrhythmia, number of patients ([1]; n: 150, baseline 21): 94
- Follow-up EEG features: Hypsarrhythmia, number of patients ([1]; n: 150, baseline 54): 6
- Follow-up EEG features: Modified Hypsarrhythmia, number of patients ([1]; n: 150, baseline 75): 6
- Follow-up EEG features: Normal EEG, share of patients ([1]; percentage of n: 150): (29.3)
- Follow-up EEG features: Without Hypsarrhythmia, share of patients ([1]; percentage of n: 150, baseline (14)): (62.7)
- Follow-up EEG features: Hypsarrhythmia, share of patients ([1]; percentage of n: 150, baseline (36)): (4)
- Follow-up EEG features: Modified Hypsarrhythmia, share of patients ([1]; percentage of n: 150, baseline (50)): (4)
- relapse rate among initial responders ([2]; 30 of 101 initial responders): 30%
- response rate (responders to the ACTH treatment at follow-up: IS cessation and resolution of hypsarrhythmia) ([2]; 101 of 150 patients, follow-up after day 14 of treatment): 67%
- Spasms frequency follow up/week ([2]; Good Response (n): 101, baseline 318): 80 /week
- Spasms frequency Change ([2]; Good responder (n: 31)): 84
- Spasms frequency Follow-up ([2]; Good responder (n: 31), baseline 122): 0
- Spasms frequency Change ([2]; Patients with Relapse (n: 11)): 11
- Spasms frequency Follow-up ([2]; Patients with Relapse (n: 11), baseline 140): 42
- Spasms frequency Change [2, 4]: 117
- Spasms frequency Follow-up ([2]; Patients without Relapse (n: 20), baseline 117): 0
- Spasms frequency follow up/week ([2]; Poor Response (n): 49, baseline 242): 233 /week
- Spasms frequency Change ([2]; Poor responder (n: 19)): 43
- Spasms frequency Follow-up ([2]; Poor responder (n: 19), baseline 105): 70
- Spasms frequency follow up/week ([2]; Relapse (n): 30, baseline 311): 270 /week
- Spasms frequency follow up/week ([2]; Without Relapse (n): 71, baseline 322): 0 /week
- Seizure frequency, Follow-up ([2]; n: 50, mean, baseline 192): 70
- Clinical response No, number of patients ([2]; n: 150): 49
- Clinical response Yes, number of patients ([2]; n: 150, IS cessation and resolution of hypsarrhythmia at follow-up): 101
- spasm frequency after ACTH treatment (median weekly) ([2]; n: 150, before treatment 294, p<0.001): 130
- Follow up spasms frequency ([2]; n: 150, mean (SD), baseline 294/week): 130 /week
- Sf diff (spasms frequency, baseline minus follow-up) ([2]; non-responders): 60
- Relapse (if good response exist) No, number of patients ([2]; of 101 initial responders): 71
- Relapse (if good response exist) Yes, number of patients ([2]; of 101 initial responders): 30
- Relapse (if good response exist) No, share of patients [2, 5]: (70.3)
- Relapse (if good response exist) Yes, share of patients [2, 5]: (29.7)
- Clinical response No, share of patients ([2]; percentage of n: 150): (32.7)
- Clinical response Yes, share of patients ([2]; percentage of n: 150): (67.3)
- Sf diff (spasms frequency, baseline minus follow-up) ([2]; responders): 158
- Delta Power Change ([3]; Good responder (n: 31)): 10.2
- Spike Count (Automatic) Change ([3]; Good responder (n: 31)): 144
- Spike Count (Manual) Change ([3]; Good responder (n: 31)): 153
- Delta Power Follow-up ([3]; Good responder (n: 31), baseline 24.7): 13.4
- Spike Count (Manual) Follow-up ([3]; Good responder (n: 31), baseline 232): 48
- Spike Count (Automatic) Follow-up ([3]; Good responder (n: 31), baseline 244): 53
- Delta Power Change ([3]; Patients with Relapse (n: 11)): 6
- Spike Count (Automatic) Change ([3]; Patients with Relapse (n: 11)): 50
- Spike Count (Manual) Change ([3]; Patients with Relapse (n: 11)): 51
- Delta Power Follow-up ([3]; Patients with Relapse (n: 11), baseline 23.6): 17.1
- Spike Count (Manual) Follow-up ([3]; Patients with Relapse (n: 11), baseline 187): 86
- Spike Count (Automatic) Follow-up ([3]; Patients with Relapse (n: 11), baseline 197): 117
- Delta Power Change [3, 4]: 14.6
- Spike Count (Automatic) Change [3, 4]: 176
- Spike Count (Manual) Change [3, 4]: 212
- Delta Power Follow-up ([3]; Patients without Relapse (n: 20), baseline 26.4): 10.5
- Spike Count (Manual) Follow-up ([3]; Patients without Relapse (n: 20), baseline 247): 10
- Spike Count (Automatic) Follow-up ([3]; Patients without Relapse (n: 20), baseline 257): 28.5
- Delta Power Change ([3]; Poor responder (n: 19)): 3.1
- Spike Count (Automatic) Change ([3]; Poor responder (n: 19)): 47
- Spike Count (Manual) Change ([3]; Poor responder (n: 19)): 52
- Delta Power Follow-up ([3]; Poor responder (n: 19), baseline 21.7): 19.5
- Spike Count (Automatic) Follow-up ([3]; Poor responder (n: 19), baseline 236): 152
- Spike Count (Manual) Follow-up ([3]; Poor responder (n: 19), baseline 242): 168
- DP (delta power) at follow-up EEG ([3]; n: 50, baseline 25.1, p<0.001): 17.2 μV
- Delta Power, Follow-up EEG ([3]; n: 50, mean, baseline 25.1): 17.2
- Spike Count Automatic, Follow-up EEG ([3]; n: 50, mean, baseline 232): 113
- Spike Count Manual, Follow-up EEG ([3]; n: 50, mean, baseline 234): 112
- ASCA diff (automatic spike count, baseline minus follow-up) ([3]; patients who relapsed): 75
- DP diff (delta power, baseline minus follow-up) ([3]; patients who relapsed): 5.4
- MSC diff (manual spike count, baseline minus follow-up) ([3]; patients who relapsed): 76
- ASCA diff (automatic spike count, baseline minus follow-up) [3, 6]: 202
- DP diff (delta power, baseline minus follow-up) [3, 6]: 14.6
- MSC diff (manual spike count, baseline minus follow-up) [3, 6]: 220
- ASCA diff (automatic spike count, baseline minus follow-up) ([3]; responders): 157 spikes
- DP diff (delta power, baseline minus follow-up) ([3]; responders): 11.3
- MSC diff (manual spike count, baseline minus follow-up) ([3]; responders): 169 spikes
